Source: patent US20190345138A1, “HETEROCYCLIC AMIDES AS KINASE INHIBITORS” (GlaxoSmithKline Intellectual Property Development Limited, priority 2016, published 2019)
Values joined by “and” are separate entries in the source; they are usually repeats but may differ in a detail not shown here. Equal values may be shown once.

Assays:
[1] = background statement; cited from earlier work
RIP1 kinase = biological target: T1, RIP1 kinase (Homo sapiens, UniProt Q13546); assay: fluorescent polarization based binding assay; settings: mean of a minimum of 2 experiments
T1 sequence (Q13546 1-375 limits assumed): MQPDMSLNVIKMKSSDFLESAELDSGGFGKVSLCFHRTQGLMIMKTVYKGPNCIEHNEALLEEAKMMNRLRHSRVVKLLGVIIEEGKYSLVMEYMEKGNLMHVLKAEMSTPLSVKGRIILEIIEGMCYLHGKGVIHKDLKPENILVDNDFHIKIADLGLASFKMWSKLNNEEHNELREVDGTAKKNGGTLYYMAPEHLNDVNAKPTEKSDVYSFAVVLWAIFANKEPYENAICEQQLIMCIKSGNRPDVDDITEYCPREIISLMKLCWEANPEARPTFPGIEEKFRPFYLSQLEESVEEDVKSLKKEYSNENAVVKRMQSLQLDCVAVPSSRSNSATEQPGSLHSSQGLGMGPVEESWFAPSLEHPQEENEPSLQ
Text: A fluorescent polarization based binding assay was used to assess the activity of the compounds of this invention, the details of which are disclosed in International Patent Appln. No. PCT/IB2014/059004, now, International Patent Appln. Pub.

[2] = system: human monocytic leukemia U937 cells; assay: necroptosis assay in U937 cells; format: cell-based; settings: viability by cellular ATP (Cell Titer-Glo); for IC50: Homo sapiens, U-937, U937 cells, read-out: pIC50, inhibited necrosis in U937 cells (converted)
Method in brief: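 Necroptosis was induced in human U937 or mouse L929 cells, and viability was quantified as cellular ATP with Cell Titer-Glo. Data are means±standard deviation.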

[3] = system: mouse L929 fibrosarcoma cells; assay: necroptosis assay in L929 cells; format: cell-based; settings: L929 cells, viability by cellular ATP (Cell Titer-Glo), read-out: pIC50, inhibited necrosis in L929 cells (converted)
Protocol: The efficacy of RIP1 inhibitors can be tested […] in vitro using a human monocytic leukemia U937 or mouse L929 fibrosarcoma cells in a necroptosis assay. As determined using the method described in S. He et al., Cell, 137(6):1100-1111 (2009) and International Patent Appln. No. PCT/IB2014/059004, now, International Patent Appln. Pub.
Viability was measured by quantitating cellular levels of ATP using the Cell Titer-Glo kit. All data are means±standard deviation of the mean.

[4] = system: TNF-driven systemic inflammatory response syndrome model; assay: TNF-driven systemic inflammatory response syndrome model (TNF/zVAD or TNF alone), temperature loss; format: in vivo; settings: Mus musculus, po, pre-dosed 15 minutes before i.v. mouse TNF alone or with zVAD; for inhibition in vivo at 10 mg/kg: 10 mg/kg PO; for inhibition in vivo at 3 mg/kg: 3 mg/kg PO
Text: The efficacy of RIP1 inhibitors can be tested in mice in vivo using a TNF-driven systemic inflammatory response syndrome model (L. Duprez et al. Immunity 35(6):908-918, (2011)) using TNF plus the caspase inhibitor zVAD or TNF alone. The TNF/zVAD model is terminated at ˜3 hrs and the TNF alone model is terminated at ˜8 hrs (under IACUC guidelines for temperature loss). TNF (or TNF/zVAD) induced manifestations include temperature loss, the production of numerous cytokines (including IL-6, IL-1b, MIP1β and MIP2) in the periphery, liver and intestinal inflammation and an increase of markers of cellular (LDH and CK) and liver damage (AST and ALT) in the serum. Inhibition of these TNF alone or TNF/zVAD induced manifestations can be shown by PO pre-dosing with selected compounds. For example, mice (8 mice per group) were pre-dosed PO with vehicle or compound 15 minutes before i.v. administration of mouse TNF (30 μg/mouse) alone or in combination with zVAD (0.4 mg/mouse) simultaneously. Temperature loss in the mice was measured by rectal probe. The study was terminated when the control group lost 7 degrees, per our IACUC protocol. All data are shown as means±standard error of the mean.

SMILES	IC50 (RIP1 kinase)	IC50 [2]	IC50 [3]	inhibition in vivo at 10 mg/kg [4]	further results
CN1C(=O)C(Cc2c[nH]c3ccccc23)NC1=S (stereo not drawn) [Necrostatin-1]	–	–	–	–	oral bioavailability [1]: poor
NC(=O)c1cnc(N2CCC(C(=O)N3N=CC[C@H]3c3ccccc3)CC2)nc1 [Example 131, (S)-2-(4-(5-phenyl-4,5-dihydro-1H-pyrazole-1-carbonyl)piperidin-1-yl)pyrimidine-5-carboxamide]	~39.8 nM	~158 nM	~3980 nM	83%	–
NC(=O)c1cc(N2CCC(C(=O)N3N=CC[C@H]3c3cc(F)cc(F)c3)CC2)ncn1 [Example 85, (S)-6-(4-(5-(3,5-difluorophenyl)-4,5-dihydro-1H-pyrazole-1-carbonyl)piperidin-1-yl)pyrimidine-4-carboxamide]	1 to 31.6 nM and 1 to 10 nM and ~10 nM	–	~316 nM	–	inhibition in vivo at 3 mg/kg [4]: 88%
Nc1cc(N2CCC(C(=O)N3N=CC[C@H]3c3ccccc3)CC2)ncn1 [Example 20, (S)-(1-(6-aminopyrimidin-4-yl)piperidin-4-yl)(5-phenyl-4,5-dihydro-1H-pyrazol-1-yl)methanone]	1 to 31.6 nM and ~15.8 nM	–	~1000 nM	92%	–
NC(=O)c1cc(N2CCC(C(=O)N3N=CC[C@H]3c3ccccc3)CC2)ncn1 [Example 32, (S)-6-(4-(5-phenyl-4,5-dihydro-1H-pyrazole-1-carbonyl)piperidin-1-yl)pyrimidine-4-carboxamide]	1 to 31.6 nM and 1 to 10 nM and ~10 nM	–	~316 nM	104%	–
NC(=O)c1cc(N2CCC(C(=O)N3N=CC[C@H]3c3cncc(F)c3)CC2)ncn1 [Example 108, (S)-6-(4-(5-(5-fluoropyridin-3-yl)-4,5-dihydro-1H-pyrazole-1-carbonyl)piperidin-1-yl)pyrimidine-4-carboxamide]	1 to 31.6 nM and ~31.6 nM	–	~10000 nM	54%	pIC50, inhibited necrosis in U937 cells ([2]; U937 cells): ~7.3; inhibition in vivo at 0.1 mg/kg ([4]; 0.1 mg/kg PO): -4%; inhibition in vivo at 1 mg/kg ([4]; 1.0 mg/kg PO): -11%; inhibition in vivo at 100 mg/kg ([4]; 100 mg/kg PO): 94%
C#Cc1cc(N2CCC(C(=O)N3N=CC[C@H]3c3ccccc3)CC2)ncn1 [Example 156, (S)-(1-(6-ethynylpyrimidin-4-yl)piperidin-4-yl)(5-phenyl-4,5-dihydro-1H-pyrazol-1-yl)methanone]	1 to 31.6 nM and 1 to 10 nM	1 to 100 nM	1 to 100 nM	–	–
CC(=O)Nc1ccnc(N2CCC(C(=O)N3N=CC[C@H]3c3ccccc3)CC2)n1 [Example 36, (S)-N-(2-(4-(5-phenyl-4,5-dihydro-1H-pyrazole-1-carbonyl)piperidin-1-yl)pyrimidin-4-yl)acetamide]	1 to 31.6 nM and 1 to 10 nM	1 to 100 nM	1 to 100 nM	–	–
N#Cc1cccc([C@@H]2CC=NN2C(=O)C2CCN(c3nccc(C(N)=O)n3)CC2)c1 [Example 71, (S)-2-(4-(5-(3-cyanophenyl)-4,5-dihydro-1H-pyrazole-1-carbonyl)piperidin-1-yl)pyrimidine-4-carboxamide]	1 to 31.6 nM and ~15.8 nM	–	~794 nM	93%	–
NC(=O)c1ccnc(N2CCC(C(=O)N3N=CC[C@H]3c3cncc(F)c3)CC2)n1 [Example 109, (S)-2-(4-(5-(5-fluoropyridin-3-yl)-4,5-dihydro-1H-pyrazole-1-carbonyl)piperidin-1-yl)pyrimidine-4-carboxamide]	1 to 31.6 nM and ~25.1 nM	–	~251 nM	–	inhibition in vivo at 3 mg/kg [4]: 84%
NC(=O)c1ccnc(N2CCC(C(=O)N3N=CC[C@H]3c3ccccc3)CC2)n1 [Example 28, (S)-2-(4-(5-phenyl-4,5-dihydro-1H-pyrazole-1-carbonyl)piperidin-1-yl)pyrimidine-4-carboxamide]	1 to 31.6 nM and 1 to 10 nM	1 to 100 nM	1 to 100 nM	–	–
